According to patent publication US8536195B2, “Bicyclic derivatives as modulators of ion channels” (Vertex Pharmaceuticals Incorporated, priority 2005, dated 2013):

Biological target: T1, NaV1.3 (Homo sapiens, UniProt Q9NY46)
Test: not given
Conditions: read-out: TTX IC50; cited from earlier work
Target sequence in this assay (Q9NY46 whole entry, looked up): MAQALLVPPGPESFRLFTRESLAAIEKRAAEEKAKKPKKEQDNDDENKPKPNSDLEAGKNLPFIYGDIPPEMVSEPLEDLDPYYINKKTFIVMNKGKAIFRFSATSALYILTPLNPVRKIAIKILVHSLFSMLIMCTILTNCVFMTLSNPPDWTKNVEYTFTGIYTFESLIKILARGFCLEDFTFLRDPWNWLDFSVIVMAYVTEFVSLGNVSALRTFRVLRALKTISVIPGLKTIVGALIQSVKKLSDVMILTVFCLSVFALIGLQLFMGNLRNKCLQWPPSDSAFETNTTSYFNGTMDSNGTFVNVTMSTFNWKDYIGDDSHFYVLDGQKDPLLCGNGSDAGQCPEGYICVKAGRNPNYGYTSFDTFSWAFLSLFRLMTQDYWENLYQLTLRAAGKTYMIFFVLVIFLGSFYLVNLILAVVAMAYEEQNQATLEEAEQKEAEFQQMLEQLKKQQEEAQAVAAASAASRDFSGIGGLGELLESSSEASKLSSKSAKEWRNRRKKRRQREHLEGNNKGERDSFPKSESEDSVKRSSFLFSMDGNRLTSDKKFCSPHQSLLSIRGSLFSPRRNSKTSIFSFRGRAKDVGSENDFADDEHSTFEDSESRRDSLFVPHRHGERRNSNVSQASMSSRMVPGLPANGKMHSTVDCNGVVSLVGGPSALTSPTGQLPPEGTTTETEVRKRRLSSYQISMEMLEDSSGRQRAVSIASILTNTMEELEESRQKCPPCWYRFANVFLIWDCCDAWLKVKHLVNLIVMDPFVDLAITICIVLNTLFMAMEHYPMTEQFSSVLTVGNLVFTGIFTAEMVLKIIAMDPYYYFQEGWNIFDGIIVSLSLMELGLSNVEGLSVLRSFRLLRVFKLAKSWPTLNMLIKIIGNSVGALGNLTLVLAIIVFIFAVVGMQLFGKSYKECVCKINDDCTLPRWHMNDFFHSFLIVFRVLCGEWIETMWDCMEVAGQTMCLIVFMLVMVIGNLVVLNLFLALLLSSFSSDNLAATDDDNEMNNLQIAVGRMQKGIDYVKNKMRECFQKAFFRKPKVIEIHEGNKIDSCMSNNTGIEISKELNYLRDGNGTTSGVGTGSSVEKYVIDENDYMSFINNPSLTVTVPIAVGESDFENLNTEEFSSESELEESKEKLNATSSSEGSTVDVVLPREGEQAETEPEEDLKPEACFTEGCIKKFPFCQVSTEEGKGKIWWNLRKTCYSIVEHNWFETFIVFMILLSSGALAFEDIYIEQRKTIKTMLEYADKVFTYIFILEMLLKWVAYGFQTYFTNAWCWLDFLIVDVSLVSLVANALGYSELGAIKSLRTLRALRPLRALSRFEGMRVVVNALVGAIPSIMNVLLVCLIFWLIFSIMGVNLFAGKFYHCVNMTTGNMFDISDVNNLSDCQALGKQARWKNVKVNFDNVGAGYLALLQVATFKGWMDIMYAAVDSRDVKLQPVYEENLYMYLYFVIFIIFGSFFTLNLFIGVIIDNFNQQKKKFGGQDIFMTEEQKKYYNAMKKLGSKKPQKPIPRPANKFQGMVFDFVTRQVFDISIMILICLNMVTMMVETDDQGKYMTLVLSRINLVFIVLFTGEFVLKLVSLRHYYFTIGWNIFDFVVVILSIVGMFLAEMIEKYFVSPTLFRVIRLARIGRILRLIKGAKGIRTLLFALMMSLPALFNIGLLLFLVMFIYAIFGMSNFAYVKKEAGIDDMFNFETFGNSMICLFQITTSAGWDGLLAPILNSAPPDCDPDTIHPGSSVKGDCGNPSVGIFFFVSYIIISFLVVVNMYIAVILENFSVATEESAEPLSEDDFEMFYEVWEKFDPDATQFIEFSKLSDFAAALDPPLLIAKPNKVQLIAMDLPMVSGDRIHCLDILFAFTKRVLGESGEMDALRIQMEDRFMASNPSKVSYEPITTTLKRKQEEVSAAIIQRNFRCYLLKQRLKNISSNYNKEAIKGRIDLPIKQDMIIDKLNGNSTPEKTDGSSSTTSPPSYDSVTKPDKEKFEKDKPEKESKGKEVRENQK

With `NC1=N[C@H](O)[C@H]2[C@H]3O[C@]4(O)O[C@@H]([C@@H](O)[C@@]2(N1)[C@@H]4O)[C@]3(O)CO` [TTX, tetrodotoxin] as the molecule, how does the IC50 read?
The IC50 was 0.015 µM.

Biological target: NaV1.8 (Homo sapiens, UniProt Q9Y5Y9)
Test: not given
Conditions: read-out: TTX IC50; cited from earlier work

Chain of NaV1.8 (Q9Y5Y9 whole entry, looked up): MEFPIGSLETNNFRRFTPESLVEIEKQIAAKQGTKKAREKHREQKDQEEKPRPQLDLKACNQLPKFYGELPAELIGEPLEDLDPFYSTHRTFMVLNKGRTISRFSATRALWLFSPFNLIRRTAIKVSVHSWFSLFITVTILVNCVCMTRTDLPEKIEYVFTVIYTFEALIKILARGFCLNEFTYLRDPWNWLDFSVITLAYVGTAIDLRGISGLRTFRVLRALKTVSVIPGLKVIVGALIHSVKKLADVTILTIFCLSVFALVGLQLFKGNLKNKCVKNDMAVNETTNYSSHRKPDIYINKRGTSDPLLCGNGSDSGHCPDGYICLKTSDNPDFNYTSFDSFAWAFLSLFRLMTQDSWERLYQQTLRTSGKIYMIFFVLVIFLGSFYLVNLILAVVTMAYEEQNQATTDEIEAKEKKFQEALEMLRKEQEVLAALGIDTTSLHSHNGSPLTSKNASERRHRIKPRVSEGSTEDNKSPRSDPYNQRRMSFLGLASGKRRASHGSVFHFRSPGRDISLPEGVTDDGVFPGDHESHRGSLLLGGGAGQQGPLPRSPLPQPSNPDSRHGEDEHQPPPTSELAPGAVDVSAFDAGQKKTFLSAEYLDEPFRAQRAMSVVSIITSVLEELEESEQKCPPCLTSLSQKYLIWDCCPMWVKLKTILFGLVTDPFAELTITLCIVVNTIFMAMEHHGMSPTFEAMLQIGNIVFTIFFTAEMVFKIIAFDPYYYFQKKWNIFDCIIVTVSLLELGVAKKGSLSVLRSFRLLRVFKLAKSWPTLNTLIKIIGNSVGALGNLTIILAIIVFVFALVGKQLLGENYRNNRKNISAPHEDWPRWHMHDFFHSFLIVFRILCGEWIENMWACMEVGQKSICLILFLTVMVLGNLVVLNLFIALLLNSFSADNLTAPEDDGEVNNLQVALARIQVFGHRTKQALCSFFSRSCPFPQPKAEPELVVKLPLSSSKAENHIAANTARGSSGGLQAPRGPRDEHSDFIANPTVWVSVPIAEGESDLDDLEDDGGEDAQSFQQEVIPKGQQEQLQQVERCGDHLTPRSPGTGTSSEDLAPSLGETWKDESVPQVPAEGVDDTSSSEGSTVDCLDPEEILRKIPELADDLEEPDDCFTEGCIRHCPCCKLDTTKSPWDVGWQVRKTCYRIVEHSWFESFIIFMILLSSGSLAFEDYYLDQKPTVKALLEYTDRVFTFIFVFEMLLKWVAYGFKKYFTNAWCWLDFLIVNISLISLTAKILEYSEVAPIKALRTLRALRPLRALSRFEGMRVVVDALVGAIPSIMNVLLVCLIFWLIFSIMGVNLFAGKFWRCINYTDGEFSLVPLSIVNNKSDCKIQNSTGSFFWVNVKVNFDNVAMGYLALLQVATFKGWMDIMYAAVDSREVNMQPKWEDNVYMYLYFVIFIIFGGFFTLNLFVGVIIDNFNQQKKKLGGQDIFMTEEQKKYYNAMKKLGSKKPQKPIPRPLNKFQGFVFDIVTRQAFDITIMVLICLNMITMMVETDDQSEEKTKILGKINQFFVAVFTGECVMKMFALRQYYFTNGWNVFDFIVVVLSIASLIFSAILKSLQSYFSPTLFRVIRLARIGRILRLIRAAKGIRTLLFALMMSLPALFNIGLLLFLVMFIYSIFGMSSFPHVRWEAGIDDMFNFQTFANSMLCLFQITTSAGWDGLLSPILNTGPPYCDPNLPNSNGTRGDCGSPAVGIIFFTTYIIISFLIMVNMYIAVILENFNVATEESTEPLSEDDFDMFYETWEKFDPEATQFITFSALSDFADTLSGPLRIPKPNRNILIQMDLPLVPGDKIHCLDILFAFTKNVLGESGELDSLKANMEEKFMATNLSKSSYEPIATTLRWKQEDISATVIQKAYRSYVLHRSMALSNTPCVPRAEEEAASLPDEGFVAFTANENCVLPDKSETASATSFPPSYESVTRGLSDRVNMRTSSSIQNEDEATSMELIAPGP

With `NC1=N[C@H](O)[C@H]2[C@H]3O[C@]4(O)O[C@@H]([C@@H](O)[C@@]2(N1)[C@@H]4O)[C@]3(O)CO` [TTX, tetrodotoxin] as the molecule, how does the IC50 read?
The IC50 was greater than 50 µM.

System: not given
Test: not given
Conditions: neuropathic pain, modest efficacy; cited from earlier work

With `NCC1(CC(=O)O)CCCCC1` [Gabapentin] as the molecule, how does the “share of patients in which it works” value read?
Its value is 60%.

Biological target: T1, NaV1.3
Test: Activity against NaV 1.3 channel (VIPR optical membrane potential assay with electrical stimulation)
Type: cell-based
Set-up: expressed in transfected cells; host or cells: HEK293
Conditions: not given
Experimental: Compounds of the invention are useful as antagonists of voltage-gated sodium ion channels. Antagonist properties of test compounds were assessed as follows. Cells expressing the NaV of interest were placed into microtiter plates. After an incubation period, the cells were stained with fluorescent dyes sensitive to the transmembrane potential. The test compounds were added to the microtiter plate. The cells were stimulated with either a chemical or electrical means to evoke a NaV dependent membrane potential change from unblocked channels, which was detected and measured with trans-membrane potential-sensitive dyes. Antagonists were detected as a decreased membrane potential response to the stimulus. The optical membrane potential assay utilized voltage-sensitive FRET sensors described by Gonzalez and Tsien (See Gonzalez, J. E. and R. Y. Tsien (1995) “Voltage sensing by fluorescence resonance energy transfer in single cells” Biophys J 69(4): 1272-80, and Gonzalez, J. E. and R. Y. Tsien (1997) “Improved indicators of cell membrane potential that use fluorescence resonance energy transfer” Chem Biol 4(4): 269-77) in combination with instrumentation for measuring fluorescence changes such as the Voltage/Ion Probe Reader (VIPR®) (See Gonzalez, J. E., K. Oades, et al. (1999) “Cell-based assays and instrumentation for screening ion-channel targets” Drug Discov Today 4(9): 431-439).
The following is an example of how NaV1.3 inhibition activity is measured using the optical membrane potential method #2. Other subtypes are performed in an analogous mode in a cell line expressing the NaV of interest.
HEK293 cells stably expressing NaV1.3 are plated into 96-well microtiter plates. After an appropriate incubation period, the cells are stained with the voltage sensitive dyes CC2-DMPE/DiSBAC2(3) as follows.
2×CC2-DMPE=20 μM CC2-DMPE: 10 mM CC2-DMPE is vortexed with an equivalent volume of 10% pluronic, followed by vortexing in required amount of HBSS containing 10 mM HEPES. Each cell plate will require 5 mL of 2×CC2-DMPE. 50 μL of 2×CC2-DMPE is to wells containing washed cells, resulting in a 10 μM final staining concentration. The cells are stained for 30 minutes in the dark at RT.
2×DISBAC2(3) with ABSC1=6 μM DISBAC2(3) and 1 mM ABSC1: The required amount of 10 mM DISBAC2(3) is added to a 50 ml conical tube and mixed with 1 μL 10% pluronic for each mL of solution to be made and vortexed together. Then HBSS/HEPES is added to make up 2× solution. Finally, the ABSC1 is added.
The 2×DiSBAC2(3) solution can be used to solvate compound plates. Note that compound plates are made at 2× drug concentration. Wash stained plate again, leaving residual volume of 50 μL. Add 50 uL/well of the 2×DiSBAC2(3) w/ABSC1. Stain for 30 minutes in the dark at RT.
The electrical stimulation instrument and methods of use are described in ION Channel Assay Methods PCT/US01/21652, herein incorporated by reference. The instrument comprises a microtiter plate handler, an optical system for exciting the coumarin dye while simultaneously recording the coumarin and oxonol emissions, a waveform generator, a current- or voltage-controlled amplifier, and a device for inserting electrodes in well. Under integrated computer control, this instrument passes user-programmed electrical stimulus protocols to cells within the wells of the microtiter plate.
Insert or use electrodes into each well to be assayed.
Use the current-controlled amplifier to deliver stimulation wave pulses for 3 s. Two seconds of pre-stimulus recording are performed to obtain the un-stimulated intensities. Five seconds of post-stimulation recording are performed to examine the relaxation to the resting state.
Data are analyzed and reported as normalized ratios of background-subtracted emission intensities measured in the 460 nm and 580 nm channels. Background intensities are then subtracted from each assay channel. […]
Target sequence in this assay (Q9NY46 whole entry): as the sequence (Q9NY46 whole entry, looked up) above

Which IC50 does the source give for `Cc1ccnc(NS(=O)(=O)c2ccc3c(c2)CC(CCOc2ccc(Cl)cc2Cl)C(=O)N3)n1` (stereo not shown) [Compound 10, 3-[2-(2,4-Dichloro-phenoxy)-ethyl]-2-oxo-1,2,3,4-tetrahydro-quinoline-6-sulfonic acid (4-methyl-pyrimidin-2-yl)-amide] here?
Its IC50 is 5 to 20 µM.

With `Cc1cnc(NS(=O)(=O)c2ccc3c(c2)CC(CCOc2ccc(Cl)cc2Cl)C(=O)N3)s1` (stereo not shown) [Compound 7] as the molecule, how does the IC50 read?
Its IC50 is 5 to 20 µM.

For `O=C1Nc2ccc(S(=O)(=O)Nc3nnc(-c4ccccc4)s3)cc2CC1CCOc1ccc(Cl)cc1Cl` (stereo not shown) [Compound 2], which IC50 is on record?
The IC50 was 5 to 20 µM.

With `O=C1Nc2ccc(S(=O)(=O)Nc3nc(-c4ccccc4)ns3)cc2CC1CCOc1ccc(Cl)cc1Cl` (stereo not shown) [Compound 12] as the molecule, how does the IC50 read?
Its IC50 is 5 to 20 µM.

Which IC50 does the source give for `O=C1Nc2ccc(S(=O)(=O)Nc3ccccn3)cc2CC1CCOc1ccc(Cl)cc1Cl` (stereo not shown) [Compound 8] here?
Its IC50 is 5 to 20 µM.

With `O=C1Nc2ccc(S(=O)(=O)Nc3nnc(C4CC4)s3)cc2CC1CCOc1ccc(Cl)cc1Cl` (stereo not shown) [Compound 9] as the molecule, how does the IC50 read?
The IC50 was 5 to 20 µM.

With `O=C1Nc2ccc(S(=O)(=O)Nc3nccs3)cc2CC1CCOc1ccc(Cl)cc1Cl` (stereo not shown) [Compound 3] as the molecule, how does the IC50 read?
Its IC50 is 5 to 20 µM.

For `Cc1csc(NS(=O)(=O)c2ccc3c(c2)CC(CCOc2ccc(Cl)cc2Cl)C(=O)N3)n1` (stereo not shown) [Compound 16], which IC50 is on record?
Its IC50 is 5 to 20 µM.

Which IC50 does the source give for `O=C1Nc2ccc(S(=O)(=O)Nc3ncccn3)cc2CC1CCOc1ccc(Cl)cc1Cl` (stereo not shown) [Compound 15] here?
Its IC50 is 5 to 20 µM.

With `O=C1Nc2ccc(S(=O)(=O)Nc3nncs3)cc2CC1CCOc1ccc(Cl)cc1Cl` (stereo not shown) [Compound 1] as the molecule, how does the IC50 read?
Its IC50 is 5 to 20 µM.

For `Cc1nnc(NS(=O)(=O)c2ccc3c(c2)CC(CCOc2ccc(Cl)cc2Cl)C(=O)N3)s1` (stereo not shown) [Compound 11, 3-[2-(2,4-Dichloro-phenoxy)-ethyl]-2-oxo-1,2,3,4-tetrahydro-quinoline-6-sulfonic acid (5-methyl-[1,3,4]thiadiazol-2-yl)-amide], which IC50 is on record?
The IC50 was 5 to 20 µM.

For `Cc1cc(C)nc(NS(=O)(=O)c2ccc3c(c2)CC(CCOc2ccc(Cl)cc2Cl)C(=O)N3)n1` (stereo not shown) [Compound 4], which IC50 is on record?
The IC50 was 5 to 20 µM.

Which IC50 does the source give for `COc1nc(NS(=O)(=O)c2ccc3c(c2)CC(CCOc2ccc(Cl)cc2Cl)C(=O)N3)ns1` (stereo not shown) [Compound 13] here?
The IC50 was 5 to 20 µM.

With `O=C1Nc2ccc(S(=O)(=O)Nc3nc4ccccc4s3)cc2CC1CCOc1ccc(Cl)cc1Cl` (stereo not shown) [Compound 5, 3-[2-(2,4-Dichloro-phenoxy)-ethyl]-2-oxo-1,2,3,4-tetrahydro-quinoline-6-sulfonic acid benzothiazol-2-ylamide] as the molecule, how does the IC50 read?
The IC50 was 5 to 20 µM.

With `O=C1Nc2ccc(S(=O)(=O)Nc3cnsn3)cc2CC1CCOc1ccc(Cl)cc1Cl` (stereo not shown) [Compound 6] as the molecule, how does the IC50 read?
The IC50 was 5 to 20 µM.

For `O=C1Nc2ccc(S(=O)(=O)Nc3nc[nH]n3)cc2CC1CCOc1ccc(Cl)cc1Cl` (stereo not shown) [Compound 14], which IC50 is on record?
Its IC50 is 5 to 20 µM.
